Test results published in patent publication EP2272817A1, “PAI-1 INHIBITOR” (Institute of Medicinal Molecular Design, Inc., priority 2008, dated 2009).
Like-named read-outs stand apart in the source and are kept apart here.

Biological target: recombinant human PAI-1 (Homo sapiens, UniProt P05121)
Assay: biochemical
[1] = read-out: Inhibition Rate of PAI-1 Activity (%)
[2] = read-out: Inhibition Rate of PAI Activity (%)
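Note: PAI-1 preincubated with compound, then two-chain tPA added, residual tPA activity read with fluorogenic Pyr-Gly-Arg-MCA substrate after 30 min at room temperature.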

Sequence of recombinant human PAI-1 (P05121 24-402): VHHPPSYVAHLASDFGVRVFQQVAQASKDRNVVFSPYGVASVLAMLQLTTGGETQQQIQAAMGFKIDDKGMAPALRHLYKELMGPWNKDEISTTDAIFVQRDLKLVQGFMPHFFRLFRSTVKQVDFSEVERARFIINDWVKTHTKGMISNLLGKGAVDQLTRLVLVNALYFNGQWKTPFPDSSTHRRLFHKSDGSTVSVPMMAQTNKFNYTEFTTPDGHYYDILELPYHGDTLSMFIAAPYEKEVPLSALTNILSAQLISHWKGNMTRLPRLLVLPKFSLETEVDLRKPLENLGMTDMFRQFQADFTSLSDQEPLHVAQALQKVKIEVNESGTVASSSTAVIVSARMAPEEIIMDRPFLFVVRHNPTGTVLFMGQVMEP
Experimental: To this solution, 6 µl of 80 nM recombinant human PAI-1 (Molecular Innovations, Inc.) solution prepared with Tris buffer was added, and the plate was incubated for 5 minutes at room temperature. Furthermore, 30 µl of 800 IU/ml two-chain tPA (Activity Standard; American diagnostica, inc.) prepared with Tris buffer was added, and the mixed solution was incubated for 15 minutes at room temperature. Then, 30 µl of 400 µM fluorogenic substrate (Pyr-Gly-Arg-MCA; Peptide Institute, Inc.) for tPA prepared with Tris buffer was added and reacted for 30 minutes at room temperature.
50 mM Tris, 150 mM NaCl, 10 µg/ml BSA, 0.01 % Tween80 (SIGMA-ALDRICH Corporation)

| inhibition at 5 µM [1] | inhibition at 10 µM [1] | inhibition at 25 µM [1] | Structure (SMILES) | inhibition at 5 µM [2] | inhibition at 10 µM [2] | inhibition at 25 µM [2] |
| --- | --- | --- | --- | --- | --- | --- |
| 48% | 83% | 92% | CC(C)(C)c1ccc(CN(C(=O)C(=O)O)c2cccc(OCc3ccc(OC(F)(F)F)cc3)c2)cc1 [Compound 619] |  |  |  |
| 44% | 81% | 96% | CC(C)(C)c1ccc(COc2c(/C=C/C(=O)O)cccc2-c2ccc(OC(F)(F)F)cc2)cc1 [Compound 87] |  |  |  |
| 30% | 67% | 96% | CC(C)(C)c1ccc(COc2c(Cl)cc(-c3ccc(OC(F)(F)F)cc3)cc2/C=C/C(=O)O)cc1 [Compound 91] |  |  |  |
| 83% | 78% |  | CC(C)(C)Oc1ccc(N(Cc2ccc(C(C)(C)C)cc2)C(=O)C(=O)O)cc1-c1ccc(OC(F)(F)F)cc1 [Compound 218] |  |  |  |
| 42% | 64% | 83% | CC(C)(Nc1cc(-c2ccc(OC(F)(F)F)cc2)ccc1OCc1ccc(C(C)(C)C)cc1)C(=O)O [Compound 420] |  |  |  |
|  | 4% | 61% | Cc1ccc(-c2cccc([N+](=O)[O-])c2)cc1N(Cc1ccc(C(C)(C)C)cc1)C(=O)C(=O)O [Compound 138] |  |  |  |
| 39% | 84% | 90% | CC(C)(C)c1ccc(Oc2cc(-c3ccc(OC(F)(F)F)cc3)ccc2/C=C/C(=O)O)cc1 [Compound 79] |  |  |  |
| 33% | 75% | 87% | CC(C)(C)c1ccc(CN(C(=O)C(=O)O)c2ccc(-c3ccc(OC(F)(F)F)cc3)cc2C(F)(F)F)cc1 [Compound 150] |  |  |  |
| 27% | 51% | 73% | CC(C)(C)c1ccc(COc2cc(Oc3ccc(OC(F)(F)F)cc3)ccc2/C=C/C(=O)O)cc1 [Compound 77] |  |  |  |
| 56% | 89% | 88% | CC(C)(C)c1ccc(CN(C(=O)C(=O)O)c2ccc(SCc3ccc(OC(F)(F)F)cc3)cc2)cc1 [Compound 630] |  |  |  |
| 70% | 94% | 98% | CC(C)(C)c1ccc(-c2ccc(N(Cc3ccccc3OC(F)(F)F)C(=O)C(=O)O)cc2)cc1 [Compound 202] |  |  |  |
| 52% | 82% | 96% | CCCOc1ccc(N(CCCc2ccccc2)C(=O)C(=O)O)c(-c2ccc(OC(F)(F)F)cc2)c1 [Compound 232] |  |  |  |
| 51% | 86% | 89% | CC(c1ccc(C(C)(C)C)cc1)N(C(=O)C(=O)O)c1ccc(-c2ccc(OC(F)(F)F)cc2)cc1 (stereo not drawn) [Compound 220] |  |  |  |
|  | 6% | 67% | CC(C)(C)c1ccc(CN(C(=O)C(=O)O)c2ccc(-c3ccc(Cl)cc3)cc2)cc1 [Compound 135] |  |  |  |
|  |  |  | Cc1ccc(COc2ccc(-c3ccc(OC(F)(F)F)cc3)cc2CCC(=O)O)cc1 [Compound 61] | 21% | 48% | 97% |
| 22% | 46% | 92% | CC(C)(C)c1ccc(COc2ccc(Nc3ccc(OC(F)(F)F)cc3)cc2CCC(=O)O)cc1 [Compound 412] |  |  |  |
| 64% | 89% | 82% | CC(C)(C)c1ccc(CN(C(=O)C(=O)O)c2ccc(-c3ccccc3OC(F)(F)F)cc2)cc1 [Compound 201] |  |  |  |
| 43% | 80% | 98% | CC(C)Oc1ccc(N(CCCc2ccccc2)C(=O)C(=O)O)c(-c2ccc(OC(F)(F)F)cc2)c1 [Compound 239] |  |  |  |
| 69% | 91% | 97% | CC(C)(C)c1ccc(-c2ccc(N(Cc3cccc(OC(F)(F)F)c3)C(=O)C(=O)O)cc2)cc1 [Compound 203] |  |  |  |
| 16% | 47% | 79% | Cc1ccc(-c2ccc(OC(F)(F)F)cc2)cc1N(Cc1ccc(C(C)(C)C)cc1)C(=O)C(=O)O [Compound 136] |  |  |  |
